From patent US8778926B2, “Compounds, pharmaceutical compositions and uses thereof” (Boehringer Ingelheim International GmbH, priority 2011, dated 2014) come the findings set out here.

A word on the EC50: it is the concentration giving half of the maximal effect. Read a low EC50 as higher potency in that assay.

The structures appear in SMILES notation.

The assay addresses T1, human GPR119 (Homo sapiens, UniProt Q8TDV5).
T1 construct: expression vector for human GPR119 cDNA (Acc. No. NP_848566); expressed in transfected cells
T1 sequence (Q8TDV5 1-335): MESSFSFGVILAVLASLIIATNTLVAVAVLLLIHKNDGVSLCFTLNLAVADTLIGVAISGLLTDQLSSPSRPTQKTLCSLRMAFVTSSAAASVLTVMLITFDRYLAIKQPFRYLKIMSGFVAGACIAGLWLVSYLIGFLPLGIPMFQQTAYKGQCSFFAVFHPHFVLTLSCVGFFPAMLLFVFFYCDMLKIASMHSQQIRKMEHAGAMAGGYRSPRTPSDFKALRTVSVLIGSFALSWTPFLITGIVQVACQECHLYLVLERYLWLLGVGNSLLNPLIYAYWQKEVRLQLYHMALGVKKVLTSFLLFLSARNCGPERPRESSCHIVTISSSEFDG
Nature of the assay: AlphaScreen cAMP assay, activation of GPR119 in Min-6/hGPR119 cells. It counts as cell-based. Particulars: MIN6 cells stably transfected with human GPR119; intracellular cAMP; 45 minutes incubation at room temperature. As for the experimental part: The compounds of formula I according to the invention modulate the activity of the G-protein-coupled receptor GPR119. The effect of the compounds on the activation of GPR119 and on the stimulation of intracellular cAMP concentration is determined using the AlphaScreen cAMP Assay Kit (Cat. No. #6760625R) made by PerkinElmer.
MIN6 cells [Miyazaki J et al. Endocrinology. 1990 July; 127(1):126-32] are stably transfected with an expression vector for human GPR119 cDNA (Acc. No. NP_848566). Min-6/hGPR119 cells are cultured in DMEM, 10% FBS, 500 μM β-mercaptoethanol, 0.3 mg/mL Geniticin, 2 mM GlutaMAX at 37° C. 5% CO2. For the assay, the cells are seeded in Optiplates (white, 384-well, 160 W— barcoded, TC, sterile with lid, Cat. No. #6007688 (Perkin Elmer); 10000 cells/well; 50 μl). The plates covered with lids are then incubated for 24 hours at 37° C./5% CO2. After the medium is aspirated from the wells completely, 10 μl of the test compound are added, the compounds are diluted using stimulating buffer (140 mM NaCl, 3.6 mM KCl, 0.5 mM NaH2PO4, 0.5 mM MgSO4, 1.5 mM CaCl2, 10 mM Hepes, 5 mM NaHCO3; pH 7.4. 0.5 mM IBMX and 0.1% BSA, the final DMSO concentration is 1%). After 45 minutes incubation at room temperature (approx. 20° C.), the cAMP concentrations are determined using the AlphaScreen cAMP Assay Kit (Cat. No. #6760625R from PerkinElmer).
(In general: In Alpha technology, singlet oxygen from a donor bead excites a nearby acceptor bead.)
On to `CC(C)(C)c1noc(N2CCC(C3Cc4cc(C5=CCN(S(C)(=O)=O)CC5)ncc4O3)CC2)n1` (centres unmarked) [Example 34, 2-[1-(3-tert-Butyl-[1,2,4]oxadiazol-5-yl)-piperidin-4-yl]-5-(1-methanesulfonyl-1,2,3,6-tetrahydro-pyridin-4-yl)-2,3-dihydro-furo[2,3-c]pyridine], for which the EC50 stood at 18 nM.

In turn, `CC(C)(C)c1nc(N2CCC(C3Cc4cc(C5=CCN(S(C)(=O)=O)CC5)ncc4O3)CC2)no1` (centres unmarked) [Example 39] gave an EC50 of 8 nM.

The compound `CCc1cnc(N2CCC(C3Cc4cc(-c5ccc(C(=O)N6CCOCC6)cc5)ccc4O3)CC2)nc1` (centres unmarked) [Example 60] came in with an EC50 of 11 nM.

The compound `CCc1cnc(N2CCC(C3Cc4cc(-c5ccc(C(=O)N(C)C6CCCOC6)cc5)ccc4O3)CC2)nc1` (centres unmarked) [Example 61] gave an EC50 of 47 nM.

In turn, `CCc1cnc(N2CCC(C3Cc4cc(-c5ccc(C(=O)N(C)CCOC)cc5)ccc4O3)CC2)nc1` (centres unmarked) [Example 62] showed an EC50 of 20 nM.

`CCc1cnc(N2CCC(C3Cc4cc(-c5ccc(C(=O)NCC(C)(C)CO)cc5)ccc4O3)CC2)nc1` (centres unmarked) [Example 63] gave an EC50 of 112 nM.

`CCc1cnc(N2CCC(C3Cc4cc(-c5ccc(C(=O)NCc6cocn6)cc5)ccc4O3)CC2)nc1` (centres unmarked) [Example 64] showed an EC50 of 33 nM.

Consider `CCc1cnc(N2CCC(C3Cc4cc(-c5ccc(C(=O)NCCC(C)O)cc5)ccc4O3)CC2)nc1` (centres unmarked) [Example 66], for which the EC50 came to 63 nM.

In the case of `CCc1cnc(N2CCC(C3Cc4cc(-c5ccc(C(=O)NCC#N)cc5)ccc4O3)CC2)nc1` (centres unmarked) [Example 67], the response was half-maximal at 141 nM (EC50).

`CCc1cnc(N2CCC(C3Cc4cc(-c5ccc(C(=O)N6CCC(C)(O)C6)cc5)ccc4O3)CC2)nc1` (centres unmarked) [Example 68]: the EC50 is 60 nM.

The compound `CCc1cnc(N2CCC(C3Cc4cc(-c5ccc(C(=O)N6CCC(OC)CC6)cc5)ccc4O3)CC2)nc1` (centres unmarked) [Example 69] registered an EC50 of 48 nM.

As for `CCc1cnc(N2CCC(C3Cc4cc(-c5ccc(C(=O)N6CCC(O)C6)cc5)ccc4O3)CC2)nc1` (centres unmarked) [Example 70], it took 108 nM to reach a half-maximal effect (EC50).

`CCc1cnc(N2CCC(C3Cc4cc(-c5ccc(C(=O)N(C)CC#N)cc5)ccc4O3)CC2)nc1` (centres unmarked) [Example 71] came in with an EC50 of 16 nM.

Turning to `CCc1cnc(N2CCC(C3Cc4cc(-c5ccc(C(=O)NCC6CCCO6)cc5)ccc4O3)CC2)nc1` (centres unmarked) [Example 72], the EC50 was determined as 12 nM.

`CCc1cnc(N2CCC(C3Cc4cc(-c5ccc(C(=O)NCc6ccccn6)cc5)ccc4O3)CC2)nc1` (centres unmarked) [Example 73] registered an EC50 of 19 nM.

On to `CCc1cnc(N2CCC(C3Cc4cc(-c5ccc(C(=O)NCC(C)O)cc5)ccc4O3)CC2)nc1` (centres unmarked) [Example 74], for which the EC50 worked out at 52 nM.

In the case of `CCc1cnc(N2CCC(C3Cc4cc(-c5ccc(C(=O)NCCC(C)(C)O)cc5)ccc4O3)CC2)nc1` (centres unmarked) [Example 75], it took 81 nM to reach a half-maximal effect (EC50).

Compound `CCc1cnc(N2CCC(C3Cc4cc(-c5ccc(C(=O)N6CC(OC)C6)cc5)ccc4O3)CC2)nc1` (centres unmarked) [Example 76] yielded an EC50 of 59 nM.

`CCc1cnc(N2CCC(C3Cc4cc(-c5ccc(C(=O)NCC6COCCO6)cc5)ccc4O3)CC2)nc1` (centres unmarked) [Example 77] yielded an EC50 of 19 nM.

The compound `CCc1cnc(N2CCC(C3Cc4cc(-c5ccc(C(=O)N(C)CCO)cc5)ccc4O3)CC2)nc1` (centres unmarked) [Example 78] showed an EC50 of 39 nM.
